Laboratory results: patent publication US20150196490A1 (priority 2011, published 2015)

System: sweat production
Settings: human, in vivo

Molecule	greater effectiveness in reducing sweat production than placebo [%]	greater reduction in sweat production than the control group [%]	reduction in sweat production [mg]	subjects with at least a 30% reduction in sweat production compared to Baseline [%]
CCCCCCCCCCCCCC(=O)OC(C)C [Isopropyl Myristate]	191	195	103	55
CCCOC(=O)c1ccc(O)cc1 [Propylparaben]	245	337	177	70
Polysorbate 80	280	300	159	80
